Assay results published in paper PMC10460844, “Real‐Time Monitoring of Multitarget Antimicrobial Mechanisms of Peptoids Using Label‐Free Imaging with Optical Diffraction Tomography” (Advanced Science, 2023).
Values after ≈ are worked out from the molar mass of the structure shown. Like-named read-outs stand apart in the source and are kept apart here.

How the values were obtained:
E. coli ATCC 25922 [1] = assay type: cell-based; conditions: ODT, 30 min treatment; buforin-II 25 µM, melittin 25 µM, 29 4 × MIC
Experimental: Three‐dimensional (3D) optical diffraction tomography (ODT) and fluorescence images of live bacterial cells were obtained using an HT‐2H Mach−Zehnder interferometric microscope, combining both ODT and fluorescence imaging into a single unit (Tomocube, Daejon, South Korea). 3D Fluorescence imaging was carried out, using three light sources (385, 470, and 565 nm) via serial fluorescence image acquisition in multiple planes followed by 3D deconvolution. 3D correlative imaging, using a combination of ODT and fluorescence imaging was performed using commercial software (TomoStudioTM, Tomocube) as described previously^[ [23c] ^] Bacterial cells were grown overnight and diluted (≈10^7 CFU mL^−1) in cation‐adjusted MHB2 media. The cells were loaded onto 50 mm imaging dishes with a #1.5H glass coverslip bottom (TomoDish, Tomocube) that were precoated with 0.01% (w/v) poly‐L‐lysine (Sigma‐Aldrich) in water. After 30 min incubation at room temperature, the coverslips were washed twice with PBS (pH 7.4) to remove unattached cells, and the media was replaced with PBS for the duration of the imaging. To monitor the change in bacterial morphology, bacterial cells were treated with a peptoid (or with control AMPs) in PBS containing FM4‐64 (10 µg mL^−1) or propidium iodide (10 µg mL^−1). To analyze 3D refractive index (RI) tomograms, individual bacteria were captured using ODT equipped with a digital micromirror device (Tomocube). In more detail, the light scattered by the bacterial cells was collected by an objective lens (NA = 1.2, water dipping, UPLSAPO 60XW, Olympus) and recorded by a digital image sensor (CMOS camera, FL3‐U313Y3M‐C, FLIR Systems). Using a field retrieval algorithm, the amplitude and phase images were retrieved from the obtained multiple holograms, and then the 3D RI distribution was determined.
The analysis tool in the TomoStudio software (Tomocube) was used to measure specific values, including the refractive index (RI) and the cell volume of bacteria. These values were determined from RI increments (RII) of 0.190 fL pg^−1, which is known as a representative value and was assumed to be the same for most proteins.^[ [46] ^]

E. coli ATCC 25922 [2] = experiment: Thioflavin S fluorescence imaging of intracellular aggregation; assay type: cell-based; conditions: 29 and peptoid 1 at 4 × MIC, control peptides 2 × MIC
rat erythrocytes = experiment: Hemolysis assay; assay type: cell-based; conditions: for H max (100 µM): percentage of hemolysis at the highest concentration tested (100 µM), rat erythrocytes
How it was run: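 Washed Sprague-Dawley rat erythrocytes (10% suspension in PBS pH 7.4) mixed with peptoids (0–100 µM), 60 min at 37 °C; supernatant A540 expressed as % of 1% Triton X-100 lysis. HC10/HC50 are concentrations giving 10%/50% hemolysis; Hmax is hemolysis at 100 µM.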

[3] = Analytical reversed-phase HPLC elution (hydrophobicity); assay type: physicochemical; conditions: analytical RP-HPLC, 1 mL/min, UV 220 nm; for HPLC elution (%ACN): Table 1, SunFire C18 […] 250 mm, water/ACN + 0.1% TFA, 5% B 2 min then linear to 100% B over 30 min, used as measure of hydrophobicity; for HPLC elution: Table S1, SunFire C18, water/ACN + 0.1% TFA, 5 to 100% B linear over 30 min, approximate comparison of hydrophobicity
How it was run: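 Analytical reversed-phase HPLC on a C18 column (4.6 × 250 mm, 5 μm) at 1 mL/min, water/acetonitrile each with 0.1% TFA. Held at 5% B for 2 min, then linear to 100% B over 30 min and held 5 min, with UV detection at 220 nm; retention time (tR) serves as hydrophobicity measure.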

E. coli ATCC 25922 [4] = experiment: NPN uptake assay (outer membrane); assay type: cell-based; conditions: E. coli ATCC 25922, 5 mM HEPES pH 7.2, 10 µM NPN, fluorescence
Experimental: 14. In vitro biological assays […]
The ability of peptoids to increase the permeability of the outer membrane of Gram-negative bacteria was determined by measuring the incorporation of the NPN fluorescent dye into the outer membrane of E. coli ATCC 25922. Bacterial cells were suspended to a final concentration of OD600 = 0.05 in 5 mM HEPES buffer, pH 7.2, containing 5 mM KCN. Then […]
200 μL NPN dye was added to wells of a 96 well plate to produce a final concentration of 10 μM, and the background fluorescence was recorded (λex = 350 nm, λem = 420 nm). Aliquots of peptoids were added to the well, and fluorescence was recorded as a function of time until there was no further increase in fluorescence. Increases of the permeability of the outer membrane after the addition of peptoids was reflected by increased fluorescence values as a result of NPN incorporation into the membrane. […]

E. coli ATCC 25922 [5] = assay type: cell-based, Escherichia coli; conditions: mean of triplicate
How it was run: (§1)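 Broth microdilution in cation-adjusted MHB2 containing 0.001% acetic acid and 0.02% BSA, inoculum ≈2–5 × 10^5 CFU mL^−1 from a 3–4 h secondary culture. Peptoids tested at six two-fold dilutions from 25 µM, in triplicate. MIC taken as the lowest concentration preventing visible turbidity.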

E. faecalis KCTC 3511 = assay type: cell-based; conditions: KCTC 3511
S. aureus MRSA C623 = assay type: cell-based
S. typhimurium SL 1344 = assay type: cell-based; conditions: SL 1344
S. aureus ATCC 25923 = assay type: cell-based, Staphylococcus aureus; conditions: mean of triplicate
How it was run: as §1

E. coli ML-35 cells = experiment: ONPG hydrolysis assay (inner membrane); assay type: cell-based; conditions: 1.5 mM ONPG, 10 mM sodium phosphate pH 7.4, absorbance 405 nm
Experimental: The permeability of the inner membrane was determined using E. coli ML-35 cells […]
The intact bacterial inner membrane is non-permeable to o-nitrophenyl-β-D-galactopyranoside (OPNG), a chromogenic substrate of the β-galactosidase.
Following damage to the inner membrane, OPNG enters the cells and is metabolized by β-galactosidase creating a chromogenic […]. E. coli cells were washed in 10 mM sodium phosphate (pH 7.4) containing 100 mM NaCl and resuspended in the same buffer at a final concentration of OD600 = 0.5 containing 1.5 mM ONPG. The hydrolysis of ONPG and generation of o-nitrophenol over time were monitored as absorbance change at 405 nm following the addition of peptoids. […]

E. coli ESBL 63103 = assay type: cell-based
P. aeruginosa MDR-198 = assay type: cell-based
K. pneumonia ESBL 61962 = assay type: cell-based
[6] = remark linked to increased retention time of N4hb peptoids
human cells and animals = conditions: cited from earlier work
Experimental: The antimicrobial, hemolytic, and cytotoxic activities of counter-ion-exchanged peptoids were evaluated (Table S3).

[7] = Table S2, broth dilution, MHB2, 37 °C 24 h, max 25 µM

Row | Molecule | H max (100 µM) (rat erythrocytes) [%] | HPLC elution (%ACN) [3] [%ACN] | Hmax (100 µM) (rat erythrocytes) [%] | HC10 (rat erythrocytes; pH 7.4) [µM] | HC50 (rat erythrocytes; pH 7.4) [µM] | aqueous solubility [6] | HPLC elution [3] [% MeCN] | further results
1 | CC[C@H](C)[C@H](NC(=O)CN)C(=O)NCC(=O)N[C@@H](C)C(=O)N[C@H](C(=O)N[C@@H](CC(C)C)C(=O)N[C@@H](CCCCN)C(=O)N[C@H](C(=O)N[C@@H](CC(C)C)C(=O)N[C@H](C(=O)N[C@H](C(=O)NCC(=O)N[C@@H](CC(C)C)C(=O)N1CCC[C@H]1C(=O)N[C@@H](C)C(=O)N[C@@H](CC(C)C)C(=O)N[C@H](C(=O)N[C@@H](CO)C(=O)N[C@@H](Cc1c[nH]c2ccccc12)C(=O)N[C@H](C(=O)N[C@@H](CCCCN)C(=O)N[C@@H](CCCNC(=N)N)C(=O)N[C@@H](CCCCN)C(=O)N[C@@H](CCCNC(=N)N)C(=O)N[C@@H](CCC(N)=O)C(=O)N[C@@H](CCC(N)=O)C(N)=O)[C@@H](C)CC)[C@@H](C)CC)[C@@H](C)O)[C@@H](C)O)C(C)C)C(C)C [Melittin, reference compound] | 105.7 ± 17.6 | 55.4 |  |  |  |  |  | change of cell volume (E. coli ATCC 25922 [1]): notable reduction in cell volume; change of mean RI value versus control cells (E. coli ATCC 25922 [1]): significantly increased mean RI values; Th S fluorescence (intracellular biomass aggregation) (E. coli ATCC 25922 [2]): enhanced Th S fluorescence
2 | C[C@@H](c1ccccc1)N(CC(N)=O)C(=O)CN(CCCCN)C(=O)CN(CCCCN)C(=O)CN(C(=O)CN(C(=O)CN(CCCCN)C(=O)CN(C(=O)CN(C(=O)CN(CCCCN)C(=O)CN(CCc1c[nH]c2ccccc12)C(=O)CN(CCc1c[nH]c2ccccc12)C(=O)CNCCCCN)[C@@H](C)c1ccccc1)[C@@H](C)c1ccccc1)[C@@H](C)c1ccccc1)[C@@H](C)c1ccccc1 [peptoid 32] | 15.9 ± 1.5 | 48.4 | 4.2±1.0 | 77.7 | > 100 |  |  | outer membrane disruption (NPN uptake) (E. coli ATCC 25922 [4]): somewhat lower; MIC E. coli ATCC25922 (E. coli ATCC 25922 [5]; [7]): 6.3 µM (≈ 11.7 µg/mL); MIC E. coli ATCC25922 (E. coli ATCC 25922 [5]; Table S3, counter-ion exchange series (TFA, HCl, AcOH salts)): 6.3 µM; MIC E. faecalis KCTC 3511 (E. faecalis KCTC 3511): 6.3 µM (≈ 11.7 µg/mL); MIC S. aureus MRSA C623 (S. aureus MRSA C623): 3.1 to 6.3 µM; MIC S. typhimurium SL 1344 (S. typhimurium SL 1344): 6.3 µM (≈ 11.7 µg/mL); MIC S. aureus ATCC25923 (S. aureus ATCC 25923; [7]): 3.1 µM (≈ 5.78 µg/mL); MIC S. aureus ATCC25923 (S. aureus ATCC 25923; Table S3, counter-ion exchange series): 3.1 µM (≈ 5.78 µg/mL); inner membrane disruption (ONPG hydrolysis) (E. coli ML-35 cells): lower than that seen with more hydrophobic peptoids; MIC E. coli ESBL 63103 (E. coli ESBL 63103): 12.5 to 25 µM; HC10 (rat erythrocytes; red cells of rat): > 100 µM; MIC P. aeruginosa MDR-198 (P. aeruginosa MDR-198): 6.3 to 12.5 µM; MIC K. pneumonia ESBL 61962 (K. pneumonia ESBL 61962): 12.5 to 25 µM
3 | C[C@@H](c1ccccc1)N(CC(N)=O)C(=O)CN(CCCCN)C(=O)CN(C(=O)CN(C(=O)CN(CCCCN)C(=O)CN(C(=O)CN(CCCCN)C(=O)CN(CCCCN)C(=O)CN(C(=O)CN(C(=O)CN(CCCCN)C(=O)CN(C(=O)CNCCc1c[nH]c2ccccc12)[C@@H](C)c1ccccc1)[C@@H](C)c1ccccc1)[C@@H](C)c1ccccc1)[C@@H](C)c1ccccc1)[C@@H](C)c1ccccc1)[C@@H](C)c1ccccc1 [peptoid 63] |  |  | 12.7±0.9 | 85.0 | > 100 | poor aqueous | 49.9 | 
4 | C[C@@H](c1ccccc1)N(CC(N)=O)C(=O)CN(CCCCN)C(=O)CN(C(=O)CN(C(=O)CN(CCCCN)C(=O)CN(C(=O)CN(C(=O)CN(CCCCN)C(=O)CN(C(=O)CN(CCCCN)C(=O)CN(CCCCN)C(=O)CN(C(=O)CNCCc1c[nH]c2ccccc12)[C@@H](C)c1ccccc1)[C@@H](C)c1ccccc1)[C@@H](C)c1ccccc1)[C@@H](C)c1ccccc1)[C@@H](C)c1ccccc1)[C@@H](C)c1ccccc1 [peptoid 64] |  |  | 18.9±2.9 | 70.7 | > 100 | poor aqueous | 50.5 | 
5 | KKIRVRLSA [M33-TFA] |  |  |  |  |  |  |  | toxicity of M33-TFA above that of M33-AcOH (human cells and animals): 5-30%
